The values below come from US20060205640A1, “Papillosin antimicrobial peptide, a gene coding said peptide, a vector, a transformed organism and a compound containing said organism” (priority 2003, published 2006).

No end group written: not given here.

Broadly, the MBC is the smallest concentration meeting the test's criterion for killing. A lower MBC goes with more potent killing.

The test system of test [1] is E. coli. It is filed as cell-based. As to conditions: gram-negative bacteria, 18 hours incubation, Mueller Hinton. How it is done: (§1) Complementary tests were carried out in order to determine the spectrum of activity of papillosin. The minimal bactericidal concentration (MBC) for each bacterial strain tested is determined as follows: The peptide is placed in a solution containing 0.01% acetic acid and 0.2% bovine serum albumin (BSA), then, serial dilutions of 2 in [sic—and?] 2 are realized in the same 0.01% solution of acetic acid and 0.2% BSA. 10 μl of each dilution are incubated in sterile 96-well plates (Becton Dickinson, USA, ref: 18572) in the presence of 100 μl of a bacterial suspension brought to an optical density of 0.001 at 600 nm in the Mueller Hinton environment (MHB, SIGMA, ref: M-9677).
(§2) The bacterial growth is monitored after 18 hours of incubation under agitation. The MBC is determined by spreading out the content of the first three wells in which no bacterial growth was observed; this spreading out was carried out on Petri dishes on which an agar was poured prepared from the Mueller Hinton environment. These dishes were then incubated 18 hours. The MBC corresponds to the lowest concentration of peptide for which no bacterial colony was observed on the incubated dishes.

For test [2], the system named is S. aureus. It is filed as cell-based. As to conditions: gram-positive bacteria, 18 hours incubation, Mueller Hinton. On the procedure: as §1, §2

For “GFWKKVGSAAWGGVKAAAKGAAVGGLNALAKHIQ [papillosin]”, the MBC was 0.25 to 0.5 µM in test [1] and 0.5 to 1 µM in test [2].
